The record followed here is patent US11952360B2, “Dibenzothiophene compounds” (Saint Louis University, priority 2019, dated 2024).

For data set [1], the system named is HeLa cells. Description: Metabolic proliferation (MTS) assay, toxicity in HeLa cells. The class given is cell-based. How it is done:
HeLa cells were cultured in RPMI (ThermoFisher) supplemented with 10% FBS (ThermoFisher) and 1% penicillin-streptomycin (ThermoFisher 10000 U/mL). Cells (5000 cells/well in 100 μL) were plated in a 96-well culture plate (Greiner) and incubated for […]. Fifty microliters of the compound dissolved in complete media (final DMSO concentration 1%) at final concentrations of 100 μM, 10 μM, 1 μM, 100 nM, 10 nM, and 1 nM were added to the appropriate wells. After incubation of the cells at 37° C. in a humidified atmosphere of 5% CO2 for 120 h, the cells were stained and incubated with MTS reagent (Promega) for 2 h to determine cell viability. The absorbance of each well was taken at 490 nm using a multimode plate reader (FlexStation 3, Molecular Devices, San Diego, Calif.). GraphPad Prism was used to analyze data to determine the percent viability. […] Quadruplicate measurements were performed for each compound.
The toxicity of 4 and 9 was determined in HeLa cells. The HeLa cells were treated with concentrations of the respective dye varying between 1 nm and 100 μM for 72 hours.

Data set [2] is described as follows: Fluorescence excitation/emission spectra and fluorescent quantum yield (single point method, naphthalene standard). The class given is physicochemical. Particulars: for λex (excitation maxima): Measured in CAN; for λem (emission maxima) / φ (fluorescent quantum yield, single point method): Measured in CAN (acetonitrile); for φ (fluorescent quantum yield, single point method): naphthalene standard, absorbance 0.041 at 250 nm. How it is done:
(§1) All chemicals were obtained from Alfa Aesar, Oakwood Chemical, Ark Pharm, ThermoFisher Scientific, and Sigma-Aldrich. They were used without further purification. Flash chromatography was performed using a Biotage Horizon with silica gel (SiliaFlash P60) purchased from SiliCycle. ^1H and ^13C NMR spectra were gathered on a Bruker DRX-400 in either DMSO-d6 or CDCl3. High-resolution mass spectra were measured using a ThermoScientific Q Exactive Orbitrap equipped with a Nano ESI ionization source. Absorption spectra were recorded using a Shimazdu UV-1800 UV-Vis spectrophotometer using samples contained in 10×10 mm quartz cell at a concentration of 0.01 mM. Fluorescence spectra were gathered on a Shuimazdu RF-5301 PC in a 10×10 mm quartz cuvette.
(§2) The two dyes, upon their successful synthesis and isolation, had their photophysical data gathered beginning with absorbance, which was measured through the visible and ultraviolet region. Absorbance spectra were gathered using 0.01 mM solutions of the respective compound in HPLC grade acetonitrile. The spectra are nearly identical. This was of no surprise as the chromophore is the same on both molecules; however, 9 has a more substantial absorbance than 4 with a respective molar absorptivity of 66,000 M^−1cm^−1 and 51,700 M^−1 cm^−1. The absorbance determination was followed by the fluorescence emission and excitation spectra being gathered using solutions where the absorbance of the respective compound was 0.041 at 250 nm in acetonitrile (FIG. 1). This was done to save material as the same solutions were then used to determine the fluorescent quantum yield. The excitation spectra of 4 and 9 followed the same pattern, though the two were slightly offset from one another when overlaid with respect to the x-axis.
The fluorescent quantum yield was then determined by the single point method with Eq. 1.
Naphthalene was used as the standard where it was also made into a solution with acetonitrile at a concentration which allowed the absorbance to be 0.041 at 250 nm. The fluorescent quantum yields of 4 and 9 were determined to be 0.40 and 0.67, respectively.

The test system of data set [3] is HeLa cells. The data set is described as follows: Fluorescence imaging of HeLa cells without co-stain. Format: cell-based. Particulars: 5.0 uM dye, approximately 2 hours, no co-stain. How it is done:
(§3) All images were captured with a Leica DM 400 B microscope with a DFC3000G camera (Leica Microsystems, Germany) and 63× oil immersion or 40× lenses. HeLa cells were staged according to the aforementioned methods. Leica LASX Core Software (Leica Microsystems, Germany) was used to acquire the images. All images were processed using ImageJ. The Pearson correlation coefficient was calculated using the image of a single cell using an ImageJ plugin called Colocalization Finder by Christophe Laummonerie and Jerome Mutterer of Institut de Biologie Moleculaire des Plantes.
Sterile glass poly-D-lysine coated #1.5 cover slips (NeuVitro), pre-incubated with culture medium, were placed in sterile 6-well plates. A single cell suspension of the HeLa (cervical cancer cell) cell line was prepared at 5×10^4 cells mL^−1 in the appropriate medium. Volumes of 2.0 mL were pipetted into each of the wells containing the coverslips. The 6-well plate was left overnight at 37.0° C. in a 5.0% CO2 incubator. Following the overnight incubation, the plate was aspirated dry and then PBS, containing the drug (at 5.0 uM and 0.10% DMSO) in a volume of 2.0 mL, was gently pipetted onto the cell monolayers attached to the glass cover slips. Cells on the cover slips were exposed to the dye for approximately 2 hours in the incubator at 37.0° C. in a 5.0% CO2. […]

Data set [4] in a line: UV/visible absorbance spectra in acetonitrile. Format: physicochemical. Particulars: for molar absorptivity: 0.01 mM solutions in HPLC grade acetonitrile; for λabs (absorbance maxima): Measured in CAN. How it is done: as §1, §2
Data set [5] relates to HeLa cells. Description: Fluorescence imaging of HeLa cells with CellMask Orange co-stain (colocalization). The class given is cell-based. Particulars: for cellular localization: HeLa cells co-stained with CellMask Orange, 10 minutes; for Pearson correlation coefficient with CellMask Orange: HeLa cells, 10 minutes incubation, single cell image, DAPI vs Cy-5 filter sets. How it is done:
as §3
To further optimize staining and understand the localization of the dyes in HeLa cells, a co-stain was introduced to the cells with the dyes while also utilizing a shorter incubation time. Sterile glass poly-D-lysine coated #1.5 cover slips (NeuVitro), pre-incubated with culture medium, were placed in sterile 6-well plates. A single cell suspension of the HeLa (cervical cancer cells) cell line was prepared at 5×10^4 cells ml-1 in the appropriate medium. Volumes of 2.0 mL were pipetted into each of the wells containing the coverslips. The 6-well plate was left overnight at 37.0° C. in a 5.0% CO2 incubator. Following the overnight incubation, the plate was aspirated and PBS, containing the CellMask Orange (ThermoFischer Scientific) (at 1000× dilution with 0.10% DMSO) in a volume of 1.8 mL, was gently pipetted onto the cell monolayers attached to the glass cover slips. To the CellMask doped PBS 200 μl of 4 or 9 at 50 μM was added to the respective well. Cells on the cover slips were exposed to the dye for approximately 10 minutes. Cells were washed with PBS and treated with 4.0% paraformaldehyde solution prepared in PBS, incubated for 30 minutes at room temperature for full fixation. Three washes with 1 ml of PBS were completed to ensure excess solution was rinsed away. Glass cover slips were removed and mounted on slides with ProLong Gold Antifade Mountant (ThermoFisher Scientific). The specimen was dried for several minutes and sealed with clear nail polish before visualized under a microscope.
The modest modification came in two parts; the PBS used to replace the media was now doped with a 1000× dilution of CellMask Orange (plasma membrane dye) and the incubation time for the co-stain and dyes was shortened to 10 minutes. These subtle modifications were done to determine if the dyes, 4 and 9, could be used with short incubation periods and to follow the manufacture's staining instructions for CellMask Orange. […] CellMask Orange is a known dye which readily localizes in the plasma membrane. […] The overlap was quantified using a Pearson correlation coefficient calculation with the Colocalization Finder plugin for ImageJ using a single cell image cropped from the images. […]

Setting [6] is: 100 μM, 72 hours (FIG. 4: 120 h).
Where [7] appears, read: concentrations needed for standard imaging protocols (range 1 nm to 100 μM), 72 hours.

`CCCCCCCCc1ccc2c(c1)-c1cc(CCCC(=O)O)ccc1S2(=O)=O` [Compound 9, 4-(8-octyl-5,5-dioxidodibenzo[b,d]thiophen-2-yl)butanoic acid]: the toxicity result with HeLa cells [1] (setting [6]) was “display toxicity”. The toxicity entry with HeLa cells [1] (setting [7]) is on record as “neither dye displayed toxicity”. Further, in data set [2], the “Stokes Shift” value is listed as 38 nm; the “λex (excitation maxima)” value worked out at 248 nm; the “λem (emission maxima)” value came to 357 nm; the “φ (fluorescent quantum yield, single point method)” value is 0.67. In the data set on HeLa cells [3], the “distribution of emission in the cell” value is listed as “more extranuclear emission”. Also, in data set [4], the “log εmax (maximum molar extinction coefficient)” value came out at 3.81 M^−1 cm^−1, the molar absorptivity is 66,000 M^−1cm^−1 and the “λabs (absorbance maxima)” value amounted to 247 nm. Also, in the data set with HeLa cells [5], the cellular localization result is given as “localize in the plasma membrane” and the “Pearson correlation coefficient with CellMask Orange” value worked out at 0.81.

Turning to `O=C(O)CCCc1ccc2c(c1)-c1ccccc1S2(=O)=O` [Compound 4, 4-(5,5-dioxidodibenzo[b,d]thiophen-2-yl)butanoic acid], in the data set with HeLa cells [1] (setting [6]), the toxicity result was “display toxicity”. Besides, in the data set with HeLa cells [1] (setting [7]), the toxicity result is reported as “neither dye displayed toxicity”. In addition, in data set [2], the “Stokes Shift” value was 38 nm; the “λex (excitation maxima)” value was 244 nm; the “λem (emission maxima)” value turned out to be 359 nm; the “φ (fluorescent quantum yield, single point method)” value came to 0.4. Also, the “distribution of emission in the cell” value in the data set with HeLa cells [3] is reported as “stronger emission from the center of the cell”. Besides, in data set [4], the “log εmax (maximum molar extinction coefficient)” value turned out to be 3.71 M^−1 cm^−1, the molar absorptivity is 51,700 M^−1cm^−1 and the “λabs (absorbance maxima)” value is reported as 244 nm. Further, in the data set on HeLa cells [5], the cellular localization entry is “localize in the plasma membrane” and the “Pearson correlation coefficient with CellMask Orange” value is given as 0.66.
